Test results as given in ChEMBL document CHEMBL4393741, “Novel epidithiodiketopiperazines as anti-viral zinc ejectors of the Feline Immunodeficiency Virus (FIV) nucleocapsid protein as a model for HIV infection” (Bioorg Med Chem, 2019).

Tests used:
[1] = Acute cytotoxicity against cat CRFK cells assessed as decrease in cell viability at 10 uM measured after 24 hrs by MTT assay relative to control; format: cell-based, Felis catus
[2] = test system: Feline immunodeficiency virus; assay: Antiviral activity against FIV infected in cat FL-4 cells assessed as reduction in viral RNA level measured after 7 days by qRT-PCR analysis; format: functional, organism-based; settings: FL-4, 168 h
[3] = Chronic cytotoxicity against cat FL-4 cells assessed as decrease in cell viability measured after 7 days by MTT assay; format: cell-based, Felis catus
[4] = Therapeutic index, ratio of CC50 for cat FL-4 cells to EC50 for antiviral activity against FIV infected in cat FL-4 cells; format: toxicity, cell-based; settings: read-out: Ratio CC50/EC50
[5] = Solubility of the compound; format: physicochemical
[6] = Aqueous solubility of the compound; format: physicochemical; settings: buffer

EC50 [2] [µM] | solubility [5] | solubility [6] | Structure (SMILES) | Activity [1] [%] | CC50 at 168 h [3] [µM] | selectivity ratio [4]
– | – | – | CN1C(=O)[C@]2(Cc3ccccc3)SS[C@@]1(CO)C(=O)N2C | 74 | – | –
1.8 | – | – | O=C1[C@H](S)N(Cc2ccccc2)C(=O)[C@H](S)N1Cc1ccccc1 | > 100 | 15 | –
3.9 to 4 | – | – | O=C1[C@@H]2SS[C@@H](C(=O)N2Cc2ccccc2)N1Cc1ccccc1 (racemic) | > 100 | 4.7 | 1.2
2.1 | – | – | C=CCN1C(=O)[C@@H]2SS[C@H]1C(=O)N2Cc1ccccc1 (racemic) | 96 | 5.1 | 2.4
1.6 | – | – | CC(C)N1C(=O)[C@@H]2SS[C@H]1C(=O)N2Cc1ccccc1 (racemic) | 50 | 6.5 | 4
0.034 | Soluble | – | COC(=O)CCCCCN1C(=O)[C@@H]2SS[C@H]1C(=O)N2Cc1ccccc1 (racemic) | > 100 | > 10 | > 300
0.088 | – | – | C=CC[C@@]12SS[C@@H](C(=O)N1Cc1ccccc1)N(Cc1ccccc1)C2=O (racemic) | > 100 | 6 | 69
0.63 | – | – | CCCCN1C(=O)[C@@H]2SS[C@H]1C(=O)N2Cc1ccccc1 (racemic) | 63 | > 10 | > 16
0.91 | – | – | CN1C(=O)[C@@H]2SS[C@H]1C(=O)N2Cc1ccccc1 (racemic) | > 100 | > 10 | > 11
0.55 | – | – | O=C1[C@@H]2SS[C@@H](C(=O)N2Cc2cccc(Cl)c2)N1Cc1ccccc1 (racemic) | > 100 | > 100 | > 184
0.16 | Soluble | – | CCOC(=O)CCCN1C(=O)[C@@H]2SS[C@H]1C(=O)N2Cc1ccccc1 (racemic) | > 100 | 7.5 | 48
1.9 | – | – | O=C1[C@@H]2SS[C@@H](C(=O)N2Cc2cccc3ccccc23)N1Cc1ccccc1 (racemic) | > 100 | 7.2 | 4
0.053 | Soluble | – | CCOC(=O)CCN1C(=O)[C@@H]2SS[C@H]1C(=O)N2Cc1ccccc1 (racemic) | > 100 | > 10 | > 190
> 10 | – | Insoluble | C=CCN1C(=O)[C@@H]2SS[C@@]1(CC=C)C(=O)N2Cc1ccccc1 (racemic) | > 100 | > 100 | –
0.11 | – | – | C=CCN1C(=O)[C@@H]2SS[C@@]1(Cc1ccccc1)C(=O)N2Cc1ccccc1 (racemic) | 85 | 0.72 | 6.7
0.41 | – | – | COc1ccc(CN2C(=O)[C@@H]3SS[C@H]2C(=O)N3Cc2ccccc2)cc1 (racemic) | 99 | 5.4 | –
0.88 | – | – | C=CCN1C(=O)[C@]2(CC=C)SS[C@@]1(CC=C)C(=O)N2CC=C (racemic) | 99 | 8.8 | 10
0.89 | – | – | C=CCN1C(=O)[C@]2(Cc3ccccc3)SS[C@H]1C(=O)N2Cc1ccccc1 (racemic) | > 100 | 79 | 88
> 100 | – | – | CS[C@H]1C(=O)N(Cc2ccccc2)[C@@H](SC)C(=O)N1Cc1ccccc1 (relative stereo) | 96 | > 100 | –
– | – | – | CN1C(=O)[C@]23CC4=CC=C[C@H](O)[C@H]4N2C(=O)[C@@]1(CO)SS3 [GLIOTOXIN] | 6.1 | – | –
0.01 | – | – | Cc1nnc(C(=O)NC(C)(C)c2nc(C(=O)NCc3ccc(F)cc3)c(O)c(=O)n2C)o1 [RALTEGRAVIR] | > 100 | > 100 | > 10000
5.3 | – | – | Cc1cn([C@H]2C[C@H](N=[N+]=[N-])[C@@H](CO)O2)c(=O)[nH]c1=O [ZIDOVUDINE] | > 100 | > 100 | –

Structure (SMILES) | EC50 [2] [µM] | solubility [5] | solubility [6] | Activity [1] [%] | CC50 at 168 h [3] [µM] | selectivity ratio [4]
CN1C(=O)[C@@H]2SS[C@H]1C(=O)N2C (racemic) | 3 | Insoluble | – | 77 | > 10 | > 3
CN1C(=O)[C@@]23C[C@]4([C@]56C[C@@]78SS[C@@](CO)(C(=O)N7[C@H]5Nc5ccccc56)N(C)C8=O)c5ccccc5N[C@@H]4N2C(=O)[C@]1(CO)SS3 [CHAETOCIN] | 0.0017 | – | – | 11 | 0.0035 | 2.1
